Results taken from article PMC11173301, “On the Cholesterol Raising Effect of Coffee Diterpenes Cafestol and 16-O-Methylcafestol: Interaction with Farnesoid X Receptor” (International Journal of Molecular Sciences, 2024).

Target: T1, FXR-LBD (FXR-WT; stabilized mutant FXR-CCEE) (Homo sapiens, UniProt Q96RI1)
T1 construct: gene NR1H4; plasmid from Prof; Jinsong Liu; CCEE = C432E/C466E
T1 sequence (Q96RI1 225-472 isoform Q96RI1-2): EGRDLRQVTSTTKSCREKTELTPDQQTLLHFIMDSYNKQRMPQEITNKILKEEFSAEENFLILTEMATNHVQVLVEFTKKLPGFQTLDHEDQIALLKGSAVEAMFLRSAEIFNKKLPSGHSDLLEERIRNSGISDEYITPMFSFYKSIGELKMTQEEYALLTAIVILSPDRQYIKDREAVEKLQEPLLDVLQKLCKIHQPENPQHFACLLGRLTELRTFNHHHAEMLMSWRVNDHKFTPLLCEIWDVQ
Experiment: intrinsic fluorescence titration, Stern-Volmer
Assay type: binding
Conditions: […] protein, phosphate pH […] NaCl, […] glycerol, […] °C; no inner filter correction
Excerpt: intrinsic fluorescence titration, Stern-Volmer on FXR-LBD (FXR-WT; stabilized mutant FXR-CCEE) | With GG, the numbers for the FXR-WT and the FXR-CCEE mutant were quite different

## C/C=C1\C(=O)C[C@H]2[C@@H]3CCC4=CC(=O)CC[C@]4(C)[C@H]3CC[C@]12C [guggulsterone]
  Stern-Volmer constant (KSV): 33650 ± 5000 L/mol
